Source: ChEMBL document CHEMBL1139125, “N-Benzyl-N-(tetrahydro-2H-pyran-4-yl)pyrrolidin-3-amines as selective dual serotonin/noradrenaline reuptake inhibitors” (Bioorg Med Chem Lett, 2007)

Experiments:
in vitro [1] = settings: human, liver microsomes
in vitro [2] = settings: human, hepatocytes

half-life (in vitro [1])	half-life (in vitro [2])	SMILES
0.233 h		Cc1cccc(CN(Cc2ccccn2)[C@H]2CCNC2)c1C
> 2 h		Fc1cccc(CN(C2CCOCC2)[C@H]2CCNC2)c1C(F)(F)F
> 2 h	1.38 h	c1ccc(-c2ccccc2CN(C2CCOCC2)[C@H]2CCNC2)cc1
> 2 h		Clc1cccc(CN(CC2CC2)[C@H]2CCNC2)c1Cl
> 2 h	1.18 h	Cc1cccc(CN(C2CCOCC2)[C@H]2CCNC2)c1Cl
> 2 h	1.73 h	Cc1c(Cl)cccc1CN(C1CCOCC1)[C@H]1CCNC1
1.57 h		COc1cccc(CN(C2CCOCC2)[C@H]2CCNC2)c1C
> 2 h		Cc1cccc(CN(C2CCOCC2)[C@H]2CCNC2)c1C
> 2 h	> 4 h	Cc1c(CN(C2CCOCC2)[C@H]2CCNC2)cccc1C(F)(F)F
1.02 h		Clc1cccc(CN(Cc2ccccn2)[C@H]2CCNC2)c1Cl
0.4 h		Cc1cccc(CN(Cc2ccccn2)[C@@H]2CCNC2)c1C
> 2 h		Cc1cccc(CN(C2CCOCC2)[C@@H]2CCNC2)c1C
> 2 h		Clc1cccc(CN(CC2CC2)[C@@H]2CCNC2)c1Cl
> 2 h		Cc1ccccc1CN(C1CCOCC1)[C@H]1CCNC1
> 2 h		FC(F)(F)c1ccccc1CN(C1CCOCC1)[C@H]1CCNC1
